# “And” between values parts separate entries of the source, which are not always exact repeats. Equal values may be shown once.
# Legend:
# [1] = MTS assay of non-cancerous cells; assay type: cell-based, human; design: Cell viability (Sup Fig.4a) / Cell viability (Sup Fig.4b) / Cell viability (Sup Fig.4b, 72h): unit not given here; details: human
# Method: (§1) Supplementary Figure 4. […] (a-c) MTS
# (§2) assays of HaCAT cells (immortalized human keratinocytes) treated with the indicated concentration of
# (§3) NHWD-870 for 24h (a), 48h (b) or 72h (c). Data are presented as mean ± SEM of 5 independent experiments.
# (§4) p values were calculated from two-tailed, unpaired t tests. Source data are provided as a Source Data file.
# (§5) 37℃, 5% CO2. […]
# [2] = tested on: HaCAT cells (immortalized human keratinocytes); experiment: MTS assay of non-cancerous cells; assay type: cell-based; design: Cell viability (Sup Fig.4a) / Cell viability (Sup Fig.4b) / Cell viability (Sup Fig.4b, 72h): unit not given here; details: for Cell viability (Sup Fig.4b): 48h
# Method: as §1, §2, §3, §4, §5
# TAMs = experiment: Transwell co-culture of pretreated A2780 cells and TAMs with CSF1 or anti-CSF1R antibodies; assay type: cell-based, mouse; details: co-culture with pretreated A2780 cells, MCSF-1 10ng/ml where added
# Method: Fig. 6 CSF1/CSF1R signaling is critical for the tumor inhibitory effects of NHWD-870 and CSF1 induced ovarian cancer growth depends on macrophages. a Number of TAMs after treatment with the indicated concentration of CSF1 for 48 h. Data are presented as mean ± SEM from three independent experiments. b–d Schematics of the experiments (b). A2780 cells (pre-treated with DMSO or 100 nM NHWD-870 for 48 h) were seeded into the top chamber (transwell size: 0.4 μm), and TAMs (Mac, 40,000 cells per 24-well) in medium with PBS or 10 ng/ml CSF1 (c), or 50 ng/ml IgG or anti-CSF1R antibodies (d), were seeded into the bottom chamber. Shown are quantification of TAMs (c, d). Data are presented as mean ± SEM from three independent experiments. e Representative western blot analysis of A2780 cells stably transfected with CSF1 or empty vector (EV). Selected from three independent experiments. f Schematics of the animal experiments using an orthotopic mouse OC model, established by intraperitoneally injecting 1 × 10^6 (g–j) or 2 × 10^6 (k–m) human A2780 cells overexpressing CSF1 or control into female recipient nude mice. Mice were then treated with/without liposomal clodronate (LC) for 45 days (g–j) or treated with/without NHWD-870 (PO, QD, 3 mg/kg) for 37 days (k–m). g Increased mouse body weight was measured at the indicated time points (day 0-45 after LC treatment). h–j Net tumor weight (h), ascitic fluid volumes (i) tumor implantations in peritoneum, omentum and pevic cavity (j) were measured at day 45 from LC treatment. k–m Net tumor weight (k), ascitic fluid volumes (l) tumor implantations in peritoneum, omentum and pevic cavity (m) were measured at day 37 after NHWD-870 treatment. For g–m, data are presented as mean ± SEM from five different mice. p values were calculated using two-tailed, unpaired t tests in this figure. n.s, not significant; *p < 0.05; **p < 0.01; and ***p < 0.001. Source data are provided as a Source Data file.
# CD45^+CD11b^+F4/80^+ TAMs were isolated from peritoneal metastasis of A2780 tumor-bearing mice and cultured in RPMI-1640 supplemented with 10% FBS, 1% penicillin/streptomycin, and 0–50 ng/ml CSF1 (R&D Systems) as indicated according to standard protocols. In the cancer cell-macrophage co-culture experiments, CSF1 was not added. In the transwell (Corning, pore size, 0.4 μm) co-culture experiments, tumor cells were placed into the upper chamber, and TAMs were seeded into the lower chamber.
structure (smiles),measurement,setting,value
Cc1nnn(C)c1-c1cnc2c3c4cnn(C)c4ccc3n([C@H](c3ccccc3)C3CCOCC3)c2c1 [NHWD-870],"viability at 24 h, 0.008 µM","[1]; HaCAT cells (immortalized human keratinocytes), 24h, 8 nM, read-out: Cell viability (Sup Fig.4a)",92.2%
same,"viability at 24 h, 0.016 µM","[1]; HaCAT cells (immortalized human keratinocytes), 24h, 16 nM, read-out: Cell viability (Sup Fig.4a)",110%
same,"viability at 24 h, 0.064 µM","[1]; HaCAT cells (immortalized human keratinocytes), 24h, 64 nM, read-out: Cell viability (Sup Fig.4a)",103%
same,"viability at 24 h, 0.25 µM","[1]; HaCAT cells (immortalized human keratinocytes), 24h, 250 nM, read-out: Cell viability (Sup Fig.4a)",104%
same,"viability at 24 h, 0.5 µM","[1]; HaCAT cells (immortalized human keratinocytes), 24h, 500 nM, read-out: Cell viability (Sup Fig.4a)",100%
same,"viability at 48 h, 0.032 µM","[1]; HaCAT cells (immortalized human keratinocytes), 48h, 32 nM, read-out: Cell viability (Sup Fig.4b)",91%
same,"viability at 48 h, 0.064 µM","[1]; HaCAT cells (immortalized human keratinocytes), 48h, 64 nM, read-out: Cell viability (Sup Fig.4b)",83.9%
same,"viability at 48 h, 0.25 µM","[1]; HaCAT cells (immortalized human keratinocytes), 48h, 250 nM, read-out: Cell viability (Sup Fig.4b)",88.5%
same,"viability at 48 h, 0.5 µM","[1]; HaCAT cells (immortalized human keratinocytes), 48h, 500 nM, read-out: Cell viability (Sup Fig.4b)",86.7%
same,"viability at 48 h, 1 µM","[1]; HaCAT cells (immortalized human keratinocytes), 48h, 1000 nM, read-out: Cell viability (Sup Fig.4b)",87.1%
same,"viability at 72 h, 0.008 µM","[1]; HaCAT cells (immortalized human keratinocytes), 72h, 8 nM, read-out: Cell viability (Sup Fig.4b, 72h)",99.5%
same,"viability at 72 h, 0.016 µM","[1]; HaCAT cells (immortalized human keratinocytes), 72h, 16 nM, read-out: Cell viability (Sup Fig.4b, 72h)",90.2%
same,"viability at 72 h, 0.032 µM","[1]; HaCAT cells (immortalized human keratinocytes), 72h, 32 nM, read-out: Cell viability (Sup Fig.4b, 72h)",86.9%
same,"viability at 72 h, 0.064 µM","[1]; HaCAT cells (immortalized human keratinocytes), 72h, 64 nM, read-out: Cell viability (Sup Fig.4b, 72h)",89.6%
same,"viability at 72 h, 0.25 µM","[1]; HaCAT cells (immortalized human keratinocytes), 72h, 250 nM, read-out: Cell viability (Sup Fig.4b, 72h)",78.9%
same,"viability at 72 h, 0.5 µM","[1]; HaCAT cells (immortalized human keratinocytes), 72h, 500 nM, read-out: Cell viability (Sup Fig.4b, 72h)",87.1%
same,"viability at 72 h, 1 µM","[1]; HaCAT cells (immortalized human keratinocytes), 72h, 1000 nM, read-out: Cell viability (Sup Fig.4b, 72h)",78.4%
same,"viability at 24 h, 1 µM","[1]; HaCAT cells (immortalized keratinocytes), 24h, 1000 nM, read-out: Cell viability (Sup Fig.4a)",108%
same,"viability at 48 h, 0.008 µM","[1]; HaCAT cells (immortalized keratinocytes), 48h, 8 nM, read-out: Cell viability (Sup Fig.4b)",86.6%
same,"viability at 48 h, 0.016 µM","[1]; HaCAT cells (immortalized keratinocytes), 48h, 16 nM, read-out: Cell viability (Sup Fig.4b)",89.9%
same,effect on growth of HaCAT cells,"[2]; 24h, 48h or 72h",minimal effects
same,Cell viability (Sup Fig.4a),"[2]; 24h, 8 nM, 0.008 µM",96.6 and 101.8 and 89.4 and 88.3
same,Cell viability (Sup Fig.4a),"[2]; 24h, 16 nM, 0.016 µM",98.4 and 107.6 and 95.8
same,Cell viability (Sup Fig.4a),"[2]; 24h, 32 nM, 0.032 µM",83 and 93.4 and 105.5 and 99.6 and 95.5
same,Cell viability (Sup Fig.4a),"[2]; 24h, 64 nM, 0.064 µM",112.7 and 111.1 and 101.6 and 109.8
same,Cell viability (Sup Fig.4a),"[2]; 24h, 250 nM, 0.25 µM",109.5 and 106.5 and 97.6 and 108.3
same,Cell viability (Sup Fig.4a),"[2]; 24h, 500 nM, 0.5 µM",119.6 and 110.7 and 109.3 and 105
same,Cell viability (Sup Fig.4a),"[2]; 24h, 1000 nM, 1 µM",106.7 and 106.8 and 109.4 and 111.5
same,Cell viability (Sup Fig.4b),"[2]; 8 nM, 0.008 µM",89.1 and 94.5 and 96.5
same,Cell viability (Sup Fig.4b),"[2]; 16 nM, 0.016 µM",85.3 and 85.9 and 93.1 and 85.1
same,Cell viability (Sup Fig.4b),"[2]; 32 nM, 0.032 µM",88.3 and 88.2
same,Cell viability (Sup Fig.4b),"[2]; 64 nM, 0.064 µM",94.7 and 90.4 and 88.4
same,Cell viability (Sup Fig.4b),"[2]; 250 nM, 0.25 µM",97.7 and 92.7 and 91.5
same,Cell viability (Sup Fig.4b),"[2]; 500 nM, 0.5 µM",88 and 95 and 91.6 and 82.3
same,Cell viability (Sup Fig.4b),"[2]; 1000 nM, 1 µM",88.6 and 81.5 and 80.9 and 84.8
same,"Cell viability (Sup Fig.4b, 72h)","[2]; 8 nM, 0.008 µM",90.9 and 86.4 and 92.1 and 95.1
same,"Cell viability (Sup Fig.4b, 72h)","[2]; 16 nM, 0.016 µM",95.9 and 89.1 and 93.1
same,"Cell viability (Sup Fig.4b, 72h)","[2]; 32 nM, 0.032 µM",88.4 and 97.6 and 92.8 and 90.1
same,"Cell viability (Sup Fig.4b, 72h)","[2]; 64 nM, 0.064 µM",99.6 and 89.5 and 92.9
same,"Cell viability (Sup Fig.4b, 72h)","[2]; 250 nM, 0.25 µM",93.7 and 89.8 and 88
same,"Cell viability (Sup Fig.4b, 72h)","[2]; 500 nM, 0.5 µM",98.2 and 93.6 and 82.4 and 89.4
same,"Cell viability (Sup Fig.4b, 72h)","[2]; 1000 nM, 1 µM",74 and 86.3 and 92.4
same,Number of TAMs (Fig.6c),TAMs; time 0,5
same,Number of TAMs (Fig.6c),TAMs; time 24,5.5 and 5.2 and 6.2
same,Number of TAMs (Fig.6c),TAMs; time 48,6.8 and 6.3 and 7.4
same,Number of TAMs (Fig.6c),TAMs; time 72,8.9 and 9.5 and 8.5

# Reference: publication PMC7156724, “Potent BRD4 inhibitor suppresses cancer cell-macrophage interaction” (Nature Communications, 2020)
